Measurements as given in ChEMBL document CHEMBL5344409, “Discovery of pan-IAP degraders via a CRBN recruiting mechanism” (2023).
Activity calls are given as the source filed them. No cut-off for these calls is given here.

Assays:
[1] = target: T1, Protein cereblon/E3 ubiquitin-protein ligase XIAP (Homo sapiens) (UniProt P98170+Q96SW2); test: PROTAC activity at CRBN/XIAP in human MCF7 cells assessed as induction of XIAP degradation at 0.1 uM measured after 18 hrs by western blot analysis; assay type: cell-based
[2] = target: T1, Protein cereblon/E3 ubiquitin-protein ligase XIAP (Homo sapiens); test: PROTAC activity at CRBN/XIAP in human MCF7 cells assessed as induction of XIAP degradation at 1 uM measured after 18 hrs by western blot analysis; assay type: cell-based
[3] = target: T2, Protein cereblon/Baculoviral IAP repeat-containing protein 3 (Homo sapiens) (UniProt Q13489+Q96SW2); test: PROTAC activity at CRBN/cIAP2 in human MCF7 cells assessed as induction of cIAP2 degradation at 0.1 uM measured after 18 hrs by western blot analysis; assay type: cell-based
[4] = target: T2, Protein cereblon/Baculoviral IAP repeat-containing protein 3 (Homo sapiens); test: PROTAC activity at CRBN/cIAP2 in human MCF7 cells assessed as induction of cIAP2 degradation at 1 uM measured after 18 hrs by western blot analysis; assay type: cell-based
[5] = target: Baculoviral IAP repeat-containing protein 2 (Homo sapiens) (UniProt Q13490); test: Induction of cIAP1 degradation in human MCF7 cells at 0.1 uM measured after 18 hrs by western blot analysis; assay type: cell-based
[6] = target: Baculoviral IAP repeat-containing protein 2 (Homo sapiens) (UniProt Q13490); test: Induction of cIAP1 degradation in human MCF7 cells at 1 uM measured after 18 hrs by western blot analysis; assay type: cell-based
[7] = target: Protein cereblon (Homo sapiens) (UniProt Q96SW2); test: Induction of CRBN degradation in human MCF7 cells by western blot analysis; assay type: cell-based
[8] = target: Baculoviral IAP repeat-containing protein 2 (Homo sapiens) (UniProt Q13490); test: Induction of cIAP1 degradation in human MCF7 cells by western blot analysis; assay type: cell-based
[9] = target: Baculoviral IAP repeat-containing protein 3 (Homo sapiens) (UniProt Q13489); test: Induction of cIAP2 degradation in human MCF7 cells by western blot analysis; assay type: cell-based
MCF7 [10] = test: Induction of apoptosis in human MCF7 cells assessed as increase in caspase 7 cleavage at 0.1 uM measured after 18 hrs by western blot analysis; assay type: functional, cell-based
MCF7 [11] = test: Induction of apoptosis in human MCF7 cells assessed as increase in PARP cleavage at 0.1 uM measured after 18 hrs by western blot analysis; assay type: functional, cell-based
MCF7 [12] = test: Induction of apoptosis in human MCF7 cells assessed as increase in total apoptotic cells at 1 uM measured after 48 hrs by AnnexinV-FITC/PI staining based flow cytometry; assay type: functional
MCF7 [13] = test: Cytotoxicity against human MCF7 cells assessed as inhibition of cell growth measured after 72 hrs by CellTiter-Glo luminescent assay; assay type: functional
SK-OV-3 = test: Cytotoxicity against human SK-OV-3 cells assessed as inhibition of cell growth measured after 72 hrs by CellTiter-Glo luminescent assay; assay type: functional, cell-based
[14] = target: T3, Protein cereblon-IAP (Homo sapiens) (UniProt P98170+Q13489+Q13490+Q96SW2); test: PROTAC activity at CRBN/IAP in human MCF7 cells assessed as inhibition of TNFalpha-induced NFkappaB activation by measuring decrease in IKKalpha/beta phosphorylation at 0.1 uM pretreated for 2 hrs followed by stimulation with TNF-alpha for 3 mins by western blot analysis; assay type: cell-based; conditions: time 123.0 min
[15] = target: T3, Protein cereblon-IAP (Homo sapiens); test: PROTAC activity at CRBN/IAP in human MCF7 cells assessed as inhibition of TNFalpha-induced NFkappaB activation by measuring decrease in IkBalpha phosphorylation at 0.1 uM pretreated for 2 hrs followed by stimulation with TNF-alpha for 3 mins by western blot analysis; assay type: cell-based; conditions: time 123.0 min
[16] = target: T3, Protein cereblon-IAP (Homo sapiens); test: PROTAC activity at CRBN/IAP in human MCF7 cells assessed as inhibition of TNFalpha-induced NFkappaB activation by measuring decrease in p65 phosphorylation at 0.1 uM pretreated for 2 hrs followed by stimulation with TNF-alpha for 3 mins by western blot analysis; assay type: cell-based; conditions: time 123.0 min
[17] = target: T3, Protein cereblon-IAP (Homo sapiens); test: PROTAC activity at CRBN/IAP in human MCF7 cells assessed as inhibition of TNFalpha-induced NFkappaB activation by measuring decrease in p38 phosphorylation at 0.1 uM pretreated for 2 hrs followed by stimulation with TNF-alpha for 3 mins by western blot analysis; assay type: cell-based; conditions: time 123.0 min
MDA-MB-231 [18] = test: Inhibition of TNFalpha-induced cell migration in human MDA-MB-231 cells at 0.1 uM measured after 24 hrs in presence of TNFalpha by transwell assay; assay type: functional, cell-based
MDA-MB-231 [19] = test: Inhibition of TNFalpha-induced cell invasion in human MDA-MB-231 cells at 0.1 uM measured after 24 hrs in presence of TNFalpha by transwell assay; assay type: functional, cell-based
MDA-MB-157 [20] = test: Inhibition of TNFalpha-induced cell migration in human MDA-MB-157 cells at 0.1 uM measured after 24 hrs in presence of TNFalpha by transwell assay; assay type: functional, cell-based
MDA-MB-157 [21] = test: Inhibition of TNFalpha-induced cell invasion in human MDA-MB-157 cells at 0.1 uM measured after 24 hrs in presence of TNFalpha by transwell assay; assay type: functional, cell-based
[22] = target: T2, Protein cereblon/Baculoviral IAP repeat-containing protein 3 (Homo sapiens); test: PROTAC activity at CRBN/cIAP2 in human MCF7 cells assessed as induction of cIAP2 degradation by western blot analysis; assay type: cell-based

T2 sequence (Q13489 whole entry, looked up): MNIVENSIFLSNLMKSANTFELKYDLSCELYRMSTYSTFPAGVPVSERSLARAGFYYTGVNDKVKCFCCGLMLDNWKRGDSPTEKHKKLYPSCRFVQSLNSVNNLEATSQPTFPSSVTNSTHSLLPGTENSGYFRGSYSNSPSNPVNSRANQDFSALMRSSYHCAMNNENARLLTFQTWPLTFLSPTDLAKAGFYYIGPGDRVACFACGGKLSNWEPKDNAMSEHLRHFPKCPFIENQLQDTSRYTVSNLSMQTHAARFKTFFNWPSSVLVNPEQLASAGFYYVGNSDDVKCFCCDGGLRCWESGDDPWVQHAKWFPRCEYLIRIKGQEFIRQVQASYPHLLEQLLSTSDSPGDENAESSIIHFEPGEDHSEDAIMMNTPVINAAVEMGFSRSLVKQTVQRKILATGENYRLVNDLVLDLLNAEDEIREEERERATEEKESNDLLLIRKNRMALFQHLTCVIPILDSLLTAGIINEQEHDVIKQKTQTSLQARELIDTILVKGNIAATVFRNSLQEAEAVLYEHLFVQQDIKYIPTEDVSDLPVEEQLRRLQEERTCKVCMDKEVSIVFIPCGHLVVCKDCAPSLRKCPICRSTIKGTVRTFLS
T2 sequence (Q96SW2 whole entry, looked up): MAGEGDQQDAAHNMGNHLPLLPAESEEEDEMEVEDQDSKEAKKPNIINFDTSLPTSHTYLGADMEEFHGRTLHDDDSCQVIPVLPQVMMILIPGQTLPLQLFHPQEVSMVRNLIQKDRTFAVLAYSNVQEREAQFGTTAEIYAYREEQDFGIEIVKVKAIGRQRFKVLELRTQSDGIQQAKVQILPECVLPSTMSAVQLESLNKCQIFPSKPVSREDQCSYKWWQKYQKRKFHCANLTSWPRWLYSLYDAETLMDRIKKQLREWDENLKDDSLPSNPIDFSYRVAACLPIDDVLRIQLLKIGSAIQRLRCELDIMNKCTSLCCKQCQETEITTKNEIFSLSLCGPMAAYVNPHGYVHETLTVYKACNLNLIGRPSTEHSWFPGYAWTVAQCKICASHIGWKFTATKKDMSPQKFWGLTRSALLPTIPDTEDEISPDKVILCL
Chain of Protein cereblon (Homo sapiens) (Q96SW2 whole entry): as the sequence (Q96SW2 whole entry, looked up) above
Chain of Baculoviral IAP repeat-containing protein 2 (Homo sapiens) (Q13490 whole entry): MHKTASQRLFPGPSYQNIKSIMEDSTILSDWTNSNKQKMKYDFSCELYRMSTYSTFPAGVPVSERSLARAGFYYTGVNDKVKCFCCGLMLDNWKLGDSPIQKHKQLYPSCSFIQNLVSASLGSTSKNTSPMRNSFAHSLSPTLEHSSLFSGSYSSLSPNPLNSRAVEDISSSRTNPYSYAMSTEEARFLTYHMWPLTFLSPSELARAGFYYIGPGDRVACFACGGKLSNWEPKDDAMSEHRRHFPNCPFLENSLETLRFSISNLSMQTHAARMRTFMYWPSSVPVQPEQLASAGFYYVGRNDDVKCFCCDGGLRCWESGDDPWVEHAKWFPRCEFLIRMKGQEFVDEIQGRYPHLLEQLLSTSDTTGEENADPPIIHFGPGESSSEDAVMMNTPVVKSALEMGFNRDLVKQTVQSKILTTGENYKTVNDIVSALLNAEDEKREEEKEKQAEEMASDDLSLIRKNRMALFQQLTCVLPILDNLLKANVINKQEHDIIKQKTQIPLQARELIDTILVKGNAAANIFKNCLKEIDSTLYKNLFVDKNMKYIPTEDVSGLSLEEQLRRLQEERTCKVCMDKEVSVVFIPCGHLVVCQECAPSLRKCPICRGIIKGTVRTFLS
T3 sequence (P98170 whole entry, looked up): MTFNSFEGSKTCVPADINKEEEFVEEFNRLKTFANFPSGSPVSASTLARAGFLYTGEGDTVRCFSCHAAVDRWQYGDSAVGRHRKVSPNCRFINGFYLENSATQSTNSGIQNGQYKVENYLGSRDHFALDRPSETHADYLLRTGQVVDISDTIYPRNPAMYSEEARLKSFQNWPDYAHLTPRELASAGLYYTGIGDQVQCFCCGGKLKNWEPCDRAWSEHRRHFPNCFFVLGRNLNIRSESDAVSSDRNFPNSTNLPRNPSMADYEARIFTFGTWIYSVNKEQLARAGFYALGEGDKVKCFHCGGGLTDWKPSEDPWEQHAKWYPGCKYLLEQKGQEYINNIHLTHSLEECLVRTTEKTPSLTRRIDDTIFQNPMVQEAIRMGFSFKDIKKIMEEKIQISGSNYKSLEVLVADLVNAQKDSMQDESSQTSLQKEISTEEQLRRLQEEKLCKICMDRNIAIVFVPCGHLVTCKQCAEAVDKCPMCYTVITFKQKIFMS
T3 sequence (Q13489 whole entry, looked up): as the sequence (Q13489 whole entry, looked up) above
T3 sequence (Q13490 whole entry, looked up): as the sequence (Q13490 whole entry) above
T3 sequence (Q96SW2 whole entry, looked up): as the sequence (Q96SW2 whole entry, looked up) above
T1 sequence (P98170 whole entry, looked up): as the sequence (P98170 whole entry, looked up) above
T1 sequence (Q96SW2 whole entry, looked up): as the sequence (Q96SW2 whole entry, looked up) above
Chain of Baculoviral IAP repeat-containing protein 3 (Homo sapiens) (Q13489 whole entry): as the sequence (Q13489 whole entry, looked up) above

CN[C@@H](C)C(=O)N[C@H](C(=O)N1Cc2cc(OCCCNC(=O)C3CCN(c4ccc5c(c4)C(=O)N(C4CCC(=O)NC4=O)C5=O)CC3)ccc2C[C@H]1C(=O)N[C@@H]1CCCc2ccccc21)C(C)(C)C (some centres undefined)
Activity [1]: 52% | Activity [2]: 13% | Activity [3]: 97% | Activity [4]: 100% | Activity [5]: 92% | Activity [6]: 95% | Activity [7]: inactive

CN[C@@H](C)C(=O)N[C@H](C(=O)N1Cc2cc(OCCCCCCCCNC(=O)C3CCN(c4ccc5c(c4)C(=O)N(C4CCC(=O)NC4=O)C5=O)CC3)ccc2C[C@H]1C(=O)N[C@@H]1CCCc2ccccc21)C(C)(C)C (some centres undefined)
Activity [1]: 95% | Activity [2]: 82% | Activity [3]: 98% | Activity [4]: 99% | Activity [5]: 96% | Activity [6]: 97% | Activity [7]: inactive

CN[C@@H](C)C(=O)N[C@H](C(=O)N1Cc2cc(OCCCCCNC(=O)COc3ccc4c(c3)C(=O)N(C3CCC(=O)NC3=O)C4=O)ccc2C[C@H]1C(=O)N[C@@H]1CCCc2ccccc21)C(C)(C)C (some centres undefined)
Activity [1]: 83% | Activity [2]: 73% | Activity [3]: 100% | Activity [4]: 100% | Activity [5]: 89% | Activity [6]: 91% | Activity [7]: inactive

CN[C@@H](C)C(=O)N[C@H](C(=O)N1Cc2cc(OCCCCCNC(=O)C3CCN(c4ccc5c(c4)C(=O)N(C4CCC(=O)NC4=O)C5=O)CC3)ccc2C[C@H]1C(=O)N[C@@H]1CCCc2ccccc21)C(C)(C)C (some centres undefined)
Activity [1]: 90% | Activity [2]: 78% | Activity [3]: 97% | Activity [4]: 100% | Activity [5]: 91% | Activity [6]: 93% | Activity [7]: inactive

CN[C@@H](C)C(=O)N[C@H](C(=O)N1Cc2cc(OCCCCCNc3cccc4c3C(=O)N(C3CCC(=O)NC3=O)C4=O)ccc2C[C@H]1C(=O)N[C@@H]1CCCc2ccccc21)C(C)(C)C (some centres undefined)
Activity [1]: 81% | Activity [2]: 65% | Activity [3]: 100% | Activity [4]: 100% | Activity [5]: 94% | Activity [6]: 92% | Activity [7]: inactive

CN[C@@H](C)C(=O)N[C@H](C(=O)N1Cc2cc(OCCCCCCCCNC(=O)C3CN(c4ccc5c(c4)C(=O)N(C4CCC(=O)N(C)C4=O)C5=O)C3)ccc2C[C@H]1C(=O)N[C@@H]1CCCc2ccccc21)C(C)(C)C (some centres undefined)
Activity [8]: Active | Activity [9]: Active | Activity (MCF7 [10]): Active | Activity (MCF7 [11]): Active | Activity (MCF7 [12]): 32% | GI50 (MCF7 [13]): 77.8 µM | Activity (SK-OV-3): Active | Activity [14]: inactive | Activity [15]: inactive | Activity [16]: inactive | Activity [17]: inactive | inhibition (MDA-MB-231 [18]): Active | inhibition (MDA-MB-231 [19]): Active | inhibition (MDA-MB-157 [20]): Active | inhibition (MDA-MB-157 [21]): Active

CN[C@@H](C)C(=O)N[C@H](C(=O)N1Cc2cc(OCCOCCNC(=O)C3CCN(c4ccc5c(c4)C(=O)N(C4CCC(=O)NC4=O)C5=O)CC3)ccc2C[C@H]1C(=O)N[C@@H]1CCCc2ccccc21)C(C)(C)C (some centres undefined)
Activity [1]: 0% | Activity [2]: 0% | Activity [3]: 99% | Activity [4]: 94% | Activity [5]: 94% | Activity [6]: 93% | Activity [7]: inactive

CNC(C)C(=O)NC(C(=O)N1Cc2cc(OCCCCCNc3ccc4c(c3)C(=O)N(C3CCC(=O)NC3=O)C4=O)ccc2C[C@H]1C(=O)NC1CCCc2ccccc21)C(C)(C)C (single isomer, unassigned)
Activity [1]: 67% | Activity [2]: 58% | Activity [3]: 100% | Activity [4]: 98% | Activity [5]: 97% | Activity [6]: 98% | Activity [7]: inactive

CN[C@@H](C)C(=O)N[C@H](C(=O)N1Cc2cc(OCCCCCNC(=O)CNc3ccc4c(c3)C(=O)N(C3CCC(=O)NC3=O)C4=O)ccc2C[C@H]1C(=O)N[C@@H]1CCCc2ccccc21)C(C)(C)C (some centres undefined)
Activity [1]: 87% | Activity [2]: 65% | Activity [3]: 100% | Activity [4]: 100% | Activity [5]: 91% | Activity [6]: 92% | Activity [7]: inactive

CN[C@@H](C)C(=O)N[C@H](C(=O)N1Cc2cc(O)ccc2C[C@H]1C(=O)N[C@@H]1CCCc2ccccc21)C(C)(C)C
Activity [1]: 0% | Activity [2]: 0% | Activity [3]: 100% | Activity [4]: 100% | Activity [5]: 93% | Activity [6]: 95% | Activity [8]: Active | Activity [22]: Active | Activity [7]: inactive | Activity (MCF7 [10]): Active | Activity (MCF7 [11]): Active | Activity (MCF7 [12]): 31% | GI50 (MCF7 [13]): > 500 µM | Activity (SK-OV-3): Active

CN[C@@H](C)C(=O)N[C@H](C(=O)N1Cc2cc(OCCCCCNC(=O)C3CCN(c4cccc5c4C(=O)N(C4CCC(=O)NC4=O)C5=O)CC3)ccc2C[C@H]1C(=O)N[C@@H]1CCCc2ccccc21)C(C)(C)C (some centres undefined)
Activity [1]: 91% | Activity [2]: 78% | Activity [3]: 99% | Activity [4]: 90% | Activity [5]: 93% | Activity [6]: 91% | Activity [7]: inactive

CN[C@@H](C)C(=O)N[C@H](C(=O)N1Cc2cc(OCCCCCNC(=O)C3CN(c4ccc5c(c4)C(=O)N(C4CCC(=O)NC4=O)C5=O)C3)ccc2C[C@H]1C(=O)N[C@@H]1CCCc2ccccc21)C(C)(C)C (some centres undefined)
Activity [1]: 56% | Activity [2]: 39% | Activity [3]: 100% | Activity [4]: 100% | Activity [5]: 92% | Activity [6]: 89% | Activity [7]: inactive
